Patent US11304966B2, “Composition comprising HMOs for preventing or reducing nociception” (Glycom A/S, priority 2017, dated 2022)
pEC50: −log10 of the molar value.

Biological target: T1, GPR35 receptor (Homo sapiens, UniProt Q9HC97)
T1 construct: expressed in transfected cells
Assay: PathHunter β-Arrestin assay, activation of GPR35 expressed in cultured cells
Assay type: cell-based
Conditions: for activation of GPR35: up to 10 mM; for pEC50: highest concentration tested 10 mM, duplicate
Excerpt: Six human milk oligosaccharides (LNnT, LNT, 2′-FL, DFL, 6′-SL and 3′-SL) are screened for their ability to activate the GPR35 receptor in the PathHunter β-Arresin assay. This assay monitors the activation of GPR35 expressed in cultured cells, using Enzyme Fragment Complementation with β-galactosidase (β-Gal) as the functional reporter. […] EA is fused to β-Arrestin and PK is fused to GPR35. When the GPR35 is activated and β-Arrestin is recruited to the receptor, PK and EA complementation occurs, restoring β-Gal activity, which is measured using chemiluminescent Detection Reagents.
The GPR35 cell line is expanded from frozen stocks and cultured according to standard procedures. Cells are seeded in a total volume of 20 μl into white walled, 384-well microplates and incubated at 37° C. for the appropriate time prior to testing. All testing is done in duplicate. The HMO samples are held in the form of concentrated stocks in Phosphate Buffered saline (PBS). A 5× dilution compound working intermediate is prepared in PBS. Five μl of the sample is added to the cells and incubated at room temperature for 3 to 5 hours. The assay signal is generated through a single addition of 12.5 μl (50 v/v %) of PathHunter Detection reagent cocktail, followed by one-hour incubation at room temperature. Microplates are read following signal generation with a PerkinElmer Envision™ instrument for chemiluminescent signal detection. Zaprinast (which is known to be an activator of GPR35) is used as positive control. Dose-response is generated by iterative 3× dilutions of the highest concentration tested (10 mM).

T1 sequence (Q9HC97 whole entry): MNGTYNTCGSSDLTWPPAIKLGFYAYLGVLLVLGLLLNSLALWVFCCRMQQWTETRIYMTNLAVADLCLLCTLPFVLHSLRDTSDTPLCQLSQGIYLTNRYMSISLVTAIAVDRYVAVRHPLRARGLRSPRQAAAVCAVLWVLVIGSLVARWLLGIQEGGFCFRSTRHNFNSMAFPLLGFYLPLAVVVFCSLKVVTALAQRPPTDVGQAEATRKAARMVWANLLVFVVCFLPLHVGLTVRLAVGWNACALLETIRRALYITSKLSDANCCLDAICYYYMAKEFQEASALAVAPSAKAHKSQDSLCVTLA
T1 sequence (P32121 whole entry partner): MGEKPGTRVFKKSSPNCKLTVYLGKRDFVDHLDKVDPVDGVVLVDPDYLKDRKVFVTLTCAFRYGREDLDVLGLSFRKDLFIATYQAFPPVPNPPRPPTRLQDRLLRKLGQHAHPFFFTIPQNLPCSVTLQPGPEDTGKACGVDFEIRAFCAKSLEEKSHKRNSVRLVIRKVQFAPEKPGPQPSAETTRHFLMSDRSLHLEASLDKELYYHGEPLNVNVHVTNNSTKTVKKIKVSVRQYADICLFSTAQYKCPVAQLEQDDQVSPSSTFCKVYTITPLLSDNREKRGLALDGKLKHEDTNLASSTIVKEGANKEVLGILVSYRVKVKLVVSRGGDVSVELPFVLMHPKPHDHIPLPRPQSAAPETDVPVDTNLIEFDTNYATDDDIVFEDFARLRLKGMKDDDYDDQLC

Structure (SMILES) | activation of GPR35 | pEC50
CC(=O)N[C@H]1[C@H](O[C@H]2[C@@H](O)[C@@H](CO)O[C@@H](O[C@H]3[C@H](O)[C@@H](O)C(O)O[C@@H]3CO)[C@@H]2O)O[C@H](CO)[C@@H](O[C@@H]2O[C@H](CO)[C@H](O)[C@H](O)[C@H]2O)[C@@H]1O (mixture of isomers) [LNnT, lacto-N-neotetraose] | No activation | –
CC(=O)N[C@H]1[C@H]([C@H](O)[C@H](O)CO)O[C@@](O[C@H]2[C@@H](O)[C@@H](CO)O[C@@H](O[C@H]3[C@H](O)[C@@H](O)C(O)O[C@@H]3CO)[C@@H]2O)(C(=O)O)C[C@@H]1O (some centres unmarked) [3′-SL, 3′-sialyllactose] | No activation | –
CC(=O)N[C@H]1[C@H]([C@H](O)[C@H](O)CO)O[C@@](OC[C@H]2O[C@@H](O[C@H]3[C@H](O)[C@@H](O)[C@H](O)O[C@@H]3CO)[C@H](O)[C@@H](O)[C@H]2O)(C(=O)O)C[C@@H]1O [6′-SL, 6′-sialyllactose] | – | 2.19
C[C@@H]1O[C@@H](O[C@H]2[C@H](O[C@H]3[C@H](O[C@@H]4O[C@@H](C)[C@@H](O)[C@@H](O)[C@@H]4O)[C@@H](O)C(O)O[C@@H]3CO)O[C@H](CO)[C@H](O)[C@@H]2O)[C@@H](O)[C@H](O)[C@@H]1O (some centres unmarked) [DFL, difucosyllactose] | No activation | –
CC(=O)N[C@H]1[C@H](O[C@H]2[C@@H](O)[C@@H](CO)O[C@@H](O[C@H]3[C@H](O)[C@@H](O)C(O)O[C@@H]3CO)[C@@H]2O)O[C@H](CO)[C@@H](O)[C@@H]1O[C@@H]1O[C@H](CO)[C@H](O)[C@H](O)[C@H]1O (some centres unmarked) [LNT, lacto-N-tetraose] | – | 2.35
